Laboratory results from PMC7502707, “Characterization and validation of a preventative therapy for hypertrophic cardiomyopathy in a murine model of the disease” (Proceedings of the National Academy of Sciences of the …, 2020).

Test system: wt and cTnI-G203S cardiac myocytes
Experiment: Mitochondrial flavoprotein oxidation (autofluorescence) after in vitro peptide exposure
Assay type: cell-based, mouse
Settings: 10 μM BayK(−)
Description: Fluorescence was measured on a Hamamatsu Orca ER digital camera attached to an inverted Nikon TE2000-U microscope. Fluorescent indicator 5,5′,6,6′-tetrachloro-1,1′,3,3′-tetraethylbenzimidazolylcarbocyanine iodide was used to measure Ψm in cardiac myocytes, as previously described (JC-1, Molecular Probes) ([61]). Autofluorescence was used to measure flavoprotein oxidation in cardiac myocytes based on previously described methods ([13], [29], [62]). Responses to drugs were reported as a percentage increase from the basal average. Detailed methods are provided in SI Appendix. […]
Autofluorescence […]
was used to measure flavoprotein oxidation in cardiac myocytes based on previously described methods (ex = 480 nm, em = 535 nm, interval = 1 min, exposure = 1.5 seconds) (4, 6, 7). Carbonyl cyanide-4-(trifluoromethoxy)phenylhydrazone (FCCP, 50 μM, mitochondrial electron transport chain uncoupler) was added at the end of each experiment to increase flavoprotein oxidation confirming signal was mitochondrial in origin. Ratiometric JC-1 or flavoprotein fluorescent signals were quantified by manually tracing myocytes and subtracting an equivalent background region […]
Responses to drugs were reported as a percentage increase from the basal average. […]
(10). Cardiac myocytes were treated with relevant drugs in 96 well plates. MTT was added to each well to a final concentration of 0.5 mg/ml and the rate of the increase in absorbance immediately measured using a spectrophotometer at 37°C (PowerWave XS, 570 nm, reference wavelength of 620 nm). The rate of the increase in absorbance in response to treatments was expressed as a percentage of the rate of the increase prior to the addition of treatments. Each n represents number of replicates for each treatment group from cardiac myocytes isolated from a total of 6 wt (AID[S]- TAT), 4 cTnI-G203S (AID[S]-TAT), and 3 (AID-TAT) mice.
Immunoblot of ICa-L protein

QQLEEDLKGYLDWITQAE [AID-TAT] was tested, and the “increase in flavoprotein oxidation in response to BayK(−)” value (“increase in flavoprotein oxidation” below) (cTnI-G203S myocytes, 1 μM peptide in vitro) was “attenuated the response”, the “increase in flavoprotein oxidation” value (cTnI-G203S myocytes, 10 μM peptide in vitro) was “significantly attenuated the response” and the “increase in flavoprotein oxidation” value (wt myocytes, 1 μM peptide in vitro) was “attenuated the response in cTnI-G203S but not wt myocytes”. For the same sequence, the “increase in flavoprotein oxidation” value (wt myocytes, 10 μM peptide in vitro) was “significantly attenuated the response”.
